Results as given in patent US20080194616A1, “PYRIDOPYRIMIDINONE COMPOUNDS USEFUL IN TREATING SODIUM CHANNEL-MEDIATED DISEASES OR CONDITIONS” (Xenon Pharmaceuticals Inc., priority 2007, published 2008).
Structures can show the parent of a compound that is named as a salt.

Row | melting point | Structure (SMILES)
1 | 177 to 183 °C | O=c1c(-c2ccc(N[C@@H]3CCNC3)cc2)c(N2CCCC2)nc2ccccn12 (as salt: chloride) [Example 7.11, (R)-2-pyrrolidin-1-yl-3-{4-[pyrrolidin-3-ylamino]phenyl}-4H-pyrido[1,2-a]pyrimidin-4-one hydrogen chloride]
2 | > 220 °C | CCCCc1nc2ccccn2c(=O)c1-c1ccc(NC2CCNCC2)cc1 (as salt: hydrochloride) [Example 6.1, 2-butyl-3-[4-(piperidin-4-ylamino)phenyl]-4H-pyrido[1,2-a]pyrimidin-4-one hydrochloride]
3 | 190 to 210 °C | CCCCc1nc2ccccn2c(=O)c1-c1ccc(N[C@@H]2CCCNC2)cc1 (as salt: hydrochloride) [Example 6.2, (R)-2-butyl-3-{4-[piperidin-3-ylamino]phenyl}-4H-pyrido[1,2-a]pyrimidin-4-one hydrochloride]
4 | 149 to 158 °C | Cc1nc2ccccn2c(=O)c1-c1ccc(N[C@@H]2CCNC2)cc1 (as salt: hydrochloride) [Example 6.3, (R)-2-methyl-3-(4-(pyrrolidin-3-ylamino)phenyl)-4H-pyrido[1,2-a]pyrimidin-4-one hydrochloride]
5 | 175 to 182 °C | CCc1nc2ccccn2c(=O)c1-c1ccc(N[C@@H]2CCNC2)cc1 (as salt: hydrochloride) [Example 6.4, (R)-2-ethyl-3-(4-(pyrrolidin-3-ylamino)phenyl)-4H-pyrido[1,2-a]pyrimidin-4-one hydrochloride]
6 | 164 to 171 °C | CCCCc1nc2ccccn2c(=O)c1-c1ccc(N[C@H]2CCNC2)cc1 (as salt: hydrochloride) [Example 7.1, (S)-2-butyl-3-{4-[pyrrolidin-3-ylamino]phenyl}-4H-pyrido[1,2-a]pyrimidin-4-one hydrochloride]
7 | 143 to 155 °C | CCCCc1nc2ccccn2c(=O)c1-c1ccc(N[C@@H]2CCNC2)c(F)c1 (as salt: hydrochloride) [Example 7.2, (R)-2-butyl-3-{3-fluoro-4-[(pyrrolidin-3-ylamino]phenyl}-4H-pyrido[1,2-a]pyrimidin-4-one hydrochloride]
8 | 179 to 187 °C | CCCCc1nc2ccccn2c(=O)c1-c1ccc(N[C@@H]2CCNC2)cc1C (as salt: hydrochloride) [Example 7.3, (R)-2-butyl-3-{2-methyl-4-[pyrrolidin-3-ylamino]phenyl}-4H-pyrido[1,2-a]pyrimidin-4-one hydrochloride]
9 | > 170 °C | CCCCc1nc2ccccn2c(=O)c1-c1cccc(NC2CCNC2)c1 (centres unmarked) (as salt: hydrochloride) [Example 7.4, 2-butyl-3-[3-(pyrrolidin-3-ylamino)phenyl]-4H-pyrido[1,2-a]pyrimidin-4-one hydrochloride]
10 | 180 to 184 °C | CC(C)c1nc2ccccn2c(=O)c1-c1ccc(NC2CCNC2)cc1 (centres unmarked) (as salt: hydrochloride) [Example 7.5, 2-(1-methylethyl)-3-[4-(pyrrolidin-3-ylamino)phenyl]-4H-pyrido[1,2-a]pyrimidin-4-one hydrochloride]
11 | 171 to 187 °C | CC(C)CCc1nc2ccccn2c(=O)c1-c1ccc(N[C@@H]2CCNC2)cc1 (as salt: hydrochloride) [Example 7.6, (R)-2-isopentyl-3-(4-(pyrrolidin-3-ylamino)phenyl)-4H-pyrido[1,2-a]pyrimidin-4-one hydrochloride]
12 | 182 to 185 °C | O=c1c(-c2ccc(N[C@@H]3CCNC3)cc2)c(CCC2CC2)nc2ccccn12 (as salt: hydrochloride) [Example 7.7, (R)-2-(2-cyclopropylethyl)-3-(4-(pyrrolidin-3-ylamino)phenyl)-4H-pyrido[1,2-a]pyrimidin-4-one hydrochloride]
13 | 156 to 161 °C | CCCNc1nc2ccccn2c(=O)c1-c1ccc(NC2CCNC2)cc1 (centres unmarked) (as salt: hydrochloride) [Example 7.8, 2-(propylamino)-3-[4-(pyrrolidin-3-ylamino)phenyl]-4H-pyrido[1,2-a]pyrimidin-4-one hydrochloride]
14 | 232 to 236 °C | CC(C)Nc1nc2ccccn2c(=O)c1-c1ccc(NC2CCNC2)cc1 (centres unmarked) (as salt: hydrochloride) [Example 7.9, 2-[(1-methylethyl)amino]-3-[4-(pyrrolidin-3-ylamino)phenyl]-4H-pyrido[1,2-a]pyrimidin-4-one hydrochloride]
15 | 229 to 234 °C | CC(C)Nc1nc2ccccn2c(=O)c1-c1ccc(N[C@@H]2CCNC2)cc1 (as salt: hydrochloride) [Example 7.10, (R)-2-[(1-methylethyl)amino]-3-{4-[pyrrolidin-3-ylamino]phenyl}-4H-pyrido[1,2-a]pyrimidin-4-one hydrochloride]
16 | 159 to 163 °C | CCCCc1nc2ccccn2c(=O)c1-c1ccc2c(c1)CCN2C1CCNC1 (centres unmarked) (as salt: hydrochloride) [Example 7.12, 2-butyl-3-(1-(pyrrolidin-3-yl)indolin-5-yl)-4H-pyrido[1,2-a]pyrimidin-4-one hydrochloride]
17 | > 245 °C | CCCCc1nc2ccccn2c(=O)c1-c1ccc(N2CCNCC2)nc1 (as salt: hydrochloride) [Example 7.13, 2-butyl-3-(6-piperazin-1-ylpyridin-3-yl)-4H-pyrido[1,2-a]pyrimidin-4-one hydrochloride]
18 | > 100 °C (dec.) | CCCOc1nc2ccccn2c(=O)c1-c1ccc(N[C@@H]2CCNC2)cc1 (as salt: trifluoroacetate) [Example 9.1, (R)-2-propoxy-3-(4-(pyrrolidin-3-ylamino)phenyl)-4H-pyrido[1,2-a]pyrimidin-4-one trifluoroacetate]

Continued, compound first:

Row | Structure (SMILES) | melting point
19 | CCCCc1nc2ccccn2c(=O)c1-c1ccc2c(c1)CCN2 (as salt: hydrochloride) [Example 2, 2-butyl-3-(indolin-5-yl)-4H-pyrido[1,2-a]pyrimidin-4-one hydrochloride] | 157 to 162 °C
20 | CCCCc1nc2ccccn2c(=O)c1-c1ccc(NC[C@H]2CCCO2)cc1 (as salt: hydrochloride) [Example 3.27, (R)-2-butyl-3-(4-{[tetrahydrofuran-2-ylmethyl]amino}phenyl)-4H-pyrido[1,2-a]pyrimidin-4-one hydrochloride] | 155 to 170 °C
21 | CCCCc1nc2ccccn2c(=O)c1-c1ccc(NC[C@@H]2CCCO2)cc1 (as salt: hydrochloride) [Example 3.28, (S)-2-butyl-3-(4-{[tetrahydrofuran-2-ylmethyl]amino}phenyl)-4H-pyrido[1,2-a]pyrimidin-4-one hydrochloride] | 155 to 170 °C
22 | CCCCc1nc2ccccn2c(=O)c1-c1ccc(N[C@@H]2CCOC2)cc1 (as salt: hydrochloride) [Example 3.29, (R)-2-butyl-3-{4-[tetrahydrofuran-3-ylamino]phenyl}-4H-pyrido[1,2-a]pyrimidin-4-one hydrochloride] | 135 to 145 °C
23 | CCCCc1nc2ccccn2c(=O)c1-c1ccc(NC2CCCNC2)cc1 (centres unmarked) (as salt: hydrochloride) [Example 6, 2-butyl-3-[4-(piperidin-3-ylamino)phenyl]-4H-pyrido[1,2-a]pyrimidin-4-one hydrochloride] | 178 to 185 °C
24 | CCCCc1nc2ccccn2c(=O)c1-c1ccc(NC2CCNC2)cc1 (centres unmarked) (as salt: hydrochloride) [Example 7, 2-butyl-3-(4-(pyrrolidin-3-ylamino)phenyl)-4H-pyrido[1,2-a]pyrimidin-4-one hydrochloride] | 136 to 139 °C
25 | CCCCc1nc2ccccn2c(=O)c1-c1ccc(O[C@@H]2CCNC2)cc1 (as salt: hydrochloride) [Example 15, (R)-2-butyl-3-{4-[pyrrolidin-3-yloxy]phenyl}-4H-pyrido[1,2-a]pyrimidin-4-one hydrochloride] | 132 to 140 °C
26 | CCCCc1nc2ccccn2c(=O)c1-c1ccc(N(C)C2CCCNC2)cc1 (centres unmarked) (as salt: hydrochloride) [Example 17, 2-butyl-3-{4-[methyl(piperidin-3-yl)amino]phenyl}-4H-pyrido[1,2-a]pyrimidin-4-one hydrochloride] | 170 to 185 °C
27 | CCCCc1nc2ccccn2c(=O)c1-c1ccc(OS(=O)(=O)C(F)(F)F)cc1 (as salt: methanesulfonate) [Example 12, 4-(2-butyl-4-oxo-4H-pyrido[1,2-a]pyrimidin-3-yl)phenyl trifluoromethanesulfonate] | 106 to 108 °C
28 | COc1nc2ccccn2c(=O)c1-c1ccc(NC2CCNC2)cc1 (centres unmarked) (as salt: trifluoroacetate) [Example 9, 2-methoxy-3-[4-(pyrrolidin-3-ylamino)phenyl]-4H-pyrido[1,2-a]pyrimidin-4-one trifluoroacetate] | 56 to 58 °C
29 | CCCc1nc2ccccn2c(=O)c1-c1ccc(Cl)cc1 [Example 1.4, 3-(4-chlorophenyl)-2-propyl-4H-pyrido[1,2-a]pyrimidin-4-one] | 109 to 110 °C
30 | CCCCc1nc2ccccn2c(=O)c1-c1ccccc1Cl [Example 1.6, 2-butyl-3-(2-chlorophenyl)-4H-pyrido[1,2-a]pyrimidin-4-one] | 118 to 120 °C
31 | CCCCc1nc2ccccn2c(=O)c1-c1ccc(Cl)cc1C [Example 1.9, 2-butyl-3-(4-chloro-2-methylphenyl)-4H-pyrido[1,2-a]pyrimidin-4-one] | 105 to 107 °C
32 | CCCCc1nc2ccccn2c(=O)c1-c1ccc(Cl)c(C)c1 [Example 1.10, 2-butyl-3-(4-chloro-3-methylphenyl)-4H-pyrido[1,2-a]pyrimidin-4-one] | 122 to 124 °C
33 | CCCCc1nc2ccccn2c(=O)c1-c1ccc(OC)c(Cl)c1 [Example 1.13, 2-butyl-3-(3-chloro-4-methoxyphenyl)-4H-pyrido[1,2-a]pyrimidin-4-one] | 113 to 115 °C
34 | CC(C)CCc1nc2ccccn2c(=O)c1-c1ccc(Cl)cc1 [Example 1.17, 3-(4-chlorophenyl)-2-isopentyl-4H-pyrido[1,2-a]pyrimidin-4-one] | 146 to 149 °C
35 | COCCc1nc2ccccn2c(=O)c1-c1ccc(Cl)cc1 [Example 1.26, 3-(4-chlorophenyl)-2-(2-methoxyethyl)-4H-pyrido[1,2-a]pyrimidin-4-one] | 116 to 118 °C
